Holding throughout (format): cell-based
The test system of one assay is PC-3. Kind of assay: CTG cell survival assay, PC-3. The conditions noted are these: Homo sapiens, PC-3 cells. The source says:
(§1) 2. CTG Cell Survival Assay:
(§2) ATP is necessarily produced during the metabolic activities of viable cells, and there is a linear relationship between the content of ATP and the number of viable cells. Cell viability assay by CTG chemiluminescence is a general method for detecting the number of viable cells in the culture cells based on this principle. The addition of the CellTiter-Glo (CTG) reagent may induce cell lysis and produce chemiluminescent signals directly proportional to the amount of ATP in the well-plate, and thereby the cell proliferation activity in the well-plate can be measured by the reading values from the chemiluminescence.
(§3) 2.1 Experimental Materials and Instruments:
(§4) 2.4 Experimental Procedure: • 1.4.1 Cell Thawing: Cryogenic vials were removed from the liquid nitrogen container, directly immersed in a water bath at 37° C., and shaked from time to time to thaw. The cryogenic vials were removed from the water bath at 37° C., and transferred to the biosafe cabinet. Their lids were opened, and the cell suspensions were aspirated with pipettes, added to centrifuge tubes, and then added with more than 10 volumes of culture solution, mixed well; centrifuged for 5 min at 1000 rpm; the supernatant was discarded, and medium containing cell growth was added to resuspend cells. All cell suspensions were seeded to the T25 culture flasks and static cultured in an incubator at 37° C.; the culture solution were changed once on the next day, and continued to be cultured. • 2.4.2 Cell Passaging: After cells were grown to logarithmic phase and were 80%-90% confluent, cells were removed and placed in the biosafe cabinet, the old culture solution was discarded, and the cells were wetted and washed with PBS once or twice. An appropriate amount of 0.25% Trypsin-EDTA solution was added to the culture flasks. The flasks were placed in the carbon dioxide incubator at 37° C. for 2-5 min. An appropriate amount of cell growth medium containing 10% PBS was added to terminate the digestion, lightly swished, and transferred to the centrifuge tubes and centrifuged for 5 min at 1000 rpm. The cells were prepare (into cell suspensions for passaging and experimental use. • 2.4.3 Cell Plating • 2.4.3.1 A cell suspension was prepared: After cells were grown to logarithmic phase and were 80%-90% confluent, the cells were removed to the biosafe cabinet, and the old culture solution was discarded, then the cells were wetted and washed with PBS once or twice. An appropriate amount of 0.25% Trypsin-EDTA solution was added to the culture flask. The flask was placed in a carbon dioxide incubator at 37° C. for 2-5 min. An appropriate amount of the cell growth medium containing 10% PBS was added to terminate digestion, and was lightly swished. The solution was transferred to a centrifuge tube, centrifuged for 5 min at 1000 rpm, and counted. […] Secondly, 20 uM of the compound to be tested was diluted with the cell growth medium containing 0.2% DMSO in 3-fold dilution to obtain 9 concentrations, and there were 10 concentration gradients in total. • 2.4.4.3 Addition of the compounds to be tested: the prepared gradient dilution solutions of compounds to be tested were taken and added to the cell culture plate at 100 ul/well; at this point, the maximum concentration of compounds to be tested was 10 uM, and the concentration of DMSO was 0.1%.

The next assay deals with MV-4-11. As to the kind of experiment: CTG cell survival assay, MV-4-11. The conditions noted are these: Homo sapiens, MV4-11, MV-4-11 cells.
Source text: as §1, §2, §3
2.1.1 Experimental Materials: compounds to be tested, cell basal culture medium, RPMI Medium 1640 (Invitrogen, Cat#11875-093), fetal calf serum (FBS): Hyclone FETAL BOVINE SERUM DEFINED (Invitrogen, Cat#SH30070.03), antibiotics: Penicilin Streptomycin (Invitrogen, Cat#15140-122), phosphate buffer (Corning Cellgro, Cat#R21-040-CV), cell digestive solution: 0.25% Trypsin-EDTA (Invitrogen, Cat#25200-056), CTG detection kit: Promega, Cat#G7571, flat-bottom 96-well black bottom plate: NUNC, Cat#165305, T25 culture flask: NUNC, Cat#156367, T75 culture flask: NUNC, Cat#156439
2.2 Experimental Instruments: Carbon Dioxide Incubator, SANYO-MCO-20AIC, Biosafe Cabinet: BSC-1360-LIIA2, Table-Top High-Speed Refrigerated Centrifuge: SorvallST 16R, Microplate Rapid Oscillator: QB-9001, M3 Reader: SpectraMax M3, Microscope: OLYMPUS-CKX41/CKX31.
2.3 Preparation of Solutions and Reagents: Formulation of cell growth medium: RPMI Medium 1640+10% FBS+antibiotics, others: trypsin digestive solution, phosphate buffer (PBS), DMSO, CTG detection kit.
2.4 Experimental Procedure: • 1.4.1 Cell Thawing: Cryogenic vials were removed from the liquid nitrogen container, directly immersed in a water bath at 37° C., and shaked from time to time to thaw. The cryogenic vials were removed from the water bath at 37° C., and transferred to the biosafe cabinet. Their lids were opened, and the cell suspensions were aspirated with pipettes, added to centrifuge tubes, and then added with more than 10 volumes of culture solution, mixed well; centrifuged for 5 min at 1000 rpm; the supernatant was discarded, and medium containing cell growth was added to resuspend cells. All cell suspensions were seeded to the T25 culture flasks and static cultured in an incubator at 37° C.; the culture solution were changed once on the next day, and continued to be cultured. • 2.4.2 Cell Passaging: After cells were grown to logarithmic phase and were 80%-90% confluent, cells were removed and placed in the biosafe cabinet, the old culture solution was discarded, and the cells were wetted and washed with PBS once or twice. An appropriate amount of 0.25% Trypsin-EDTA solution was added to the culture flasks. The flasks were placed in the carbon dioxide incubator at 37° C. for 2-5 min. An appropriate amount of cell growth medium containing 10% PBS was added to terminate the digestion, lightly swished, and transferred to the centrifuge tubes and centrifuged for 5 min at 1000 rpm. The cells were prepare (into cell suspensions for passaging and experimental use. • 2.4.3 Cell Plating • 2.4.3.1 A cell suspension was prepared: After cells were grown to logarithmic phase and were 80%-90% confluent, the cells were removed to the biosafe cabinet, and the old culture solution was discarded, then the cells were wetted and washed with PBS once or twice. An appropriate amount of 0.25% Trypsin-EDTA solution was added to the culture flask. The flask was placed in a carbon dioxide incubator at 37° C. for 2-5 min. An appropriate amount of the cell growth medium containing 10% PBS was added to terminate digestion, and was lightly swished. The solution was transferred to a centrifuge tube, centrifuged for 5 min at 1000 rpm, and counted. […]

Another assay concerns SK-BR3/BT474. Kind of assay: CTG cell survival assay, SK-BR3/BT474. The conditions noted are these: SK-BR3/BT474 cells.
Source text: as §1, §2, §3, §4

14 molecules from patent publication US10047084B2, “Imidazolone derivatives, pharmaceutical compositions and uses thereof” (BEIJING FORELANDPHARMA CO. LTD., priority 2013, dated 2018) can be followed below.

pEC50: −log10 of the molar value. Some results are limits rather than exact numbers.

What is called pEC50 is the EC50 on a negative log10 scale, so that one unit is a factor of ten.

For `Cn1c(=O)n([C@H]2CC[C@H](O)CC2)c2c3cc(-c4ccc(-c5ccccc5)nc4)ccc3ncc21` [Example 25, 1-((1r,4r)-4-hydroxycyclohexyl)-3-methyl-8-(6-phenylpyridin-3-yl)-1H-imidazo[4,5-c]quinolin-2(3H)-one], the pEC50 in the assay with PC-3 is > 7.00; in the assay with MV-4-11, > 6.30; with SK-BR3/BT474 it was > 6.30. For `CC(=O)N[C@H]1CC[C@@H](n2c(=O)n(C)c3cnc4ccc(-c5ccc(-c6cnn(C)c6)nc5)cc4c32)CC1` [Example 33, N-((1s,4s)-4-(3-methyl-8-(6-(1-methyl-1H-pyrazol-4-yl)pyridin-3-yl)-2-oxo-2,3-dihydro-1H-imidazo[4,5-c]quinolin-1-yl)cyclohexyl)acetamide], the negative logarithm of the EC50 (pEC50) in the assay with PC-3 is > 6.70; in the assay with MV-4-11, > 6.30; in the assay with SK-BR3/BT474 it was > 7.00.

Consider `Cn1cc(-c2ccc(-c3ccc4ncc5c(c4c3)n([C@H]3CC[C@@H](NS(C)(=O)=O)CC3)c(=O)n5C)cn2)cn1` [Example 34, N-((1s,4s)-4-(3-methyl-8-(6-(1-methyl-1H-pyrazol-4-yl)pyridin-3-yl)-2-oxo-2,3-dihydro-1H-imidazo[4,5-c]quinolin-1-yl)cyclohexyl)methanesulfonamide], for which the results for the pEC50 in the assay with PC-3, in the assay on MV-4-11 and in the assay on SK-BR3/BT474 were > 7.00, > 6.70 and > 7.30, respectively. On to `Cn1cc(-c2ccc(-c3ccc4ncc5c(c4c3)n([C@H]3CC[C@@H](C(=O)O)CC3)c(=O)n5C)cn2)cn1` [Example 35, (1s,4s)-4-(3-methyl-8-(6-(1-methyl-1H-pyrazol-4-yl)pyridin-3-yl)-2-oxo-2,3-dihydro-1H-imidazo[4,5-c]quinolin-1-yl)cyclohexanecarboxylic acid], for which the pEC50 in the assay on MV-4-11 is > 6.30; in the assay on SK-BR3/BT474 it was > 6.70. In the case of `Cn1cc(-c2ccc(-c3ccc4ncc5c(c4c3)n(-c3ccc(C(C)(C)C(N)=O)cc3)c(=O)n5C)cn2)cn1` [Example 40, 2-methyl-2-(4-(3-methyl-8-(6-(1-methyl-1H-pyrazol-4-yl)pyridin-3-yl)-2-oxo-2,3-dihydro-1H-imidazo[4,5-c]quinolin-1-yl)phenyl)propionamide], the pEC50 with PC-3 is 8.00; in the assay with MV-4-11, 7.52; with SK-BR3/BT474, 7.60. In turn, `Cn1cc(-c2ccc(-c3ccc4ncc5c(c4c3)n(-c3ccc(C(C)(C)C(=O)O)cc3)c(=O)n5C)cn2)cn1` [Example 41, 2-methyl-2-(4-(3-methyl-8-(6-(1-methyl-1H-pyrazol-4-yl)pyridin-3-yl)-2-oxo-2,3-dihydro-1H-imidazo[4,5-c]quinolin-1-yl)phenyl)propionic acid] showed a pEC50 with MV-4-11 of 7.00.

Consider `Cn1c(=O)n([C@H]2CCN(S(C)(=O)=O)C2)c2c3cc(-c4ccc(-n5cccn5)nc4)ccc3ncc21` [Example 44, (S)-8-(6-(1H-pyrazol-1-yl)pyridin-3-yl)-3-methyl-1-(1-(methanesulfonyl)pyrrolidin-3-yl)-1H-imidazo[4,5-c]quinolin-2(3H)-one], for which the negative logarithm of the EC50 (pEC50) with PC-3 was > 7.30; in the assay with MV-4-11, 7.40; in the assay on SK-BR3/BT474, 7.05.

On to `Cn1c(=O)n([C@H]2CCN(S(C)(=O)=O)C2)c2c3cc(-c4ccc(-n5ccnn5)nc4)ccc3ncc21` [Example 46, (S)-8-(6-(1H-1,2,3-triazol-1-yl)pyridin-3-yl)-3-methyl-1-(1-(methanesulfonyl)pyrrolidin-3-yl)-1H-imidazo[4,5-c]quinolin-2(3H)-one], for which the pEC50 in the assay with SK-BR3/BT474 is 6.40.

For `Cn1cnc(-c2ccc(-c3ccc4ncc5c(c4c3)n([C@H]3CCN(S(C)(=O)=O)C3)c(=O)n5C)cn2)n1` [Example 48, (S)-3-methyl-8-(6-(1-methyl-1H-1,2,4-triazol-3-yl)pyridin-3-yl)-1-(1-(methanesulfonyl)pyrrolidin-3-yl)-1H-imidazo[4,5-c]quinolin-2(3H)-one], the pEC50 in the assay with SK-BR3/BT474 is > 7.00. Take `Cn1cc(-c2ccc(-c3ccc4ncc5c(c4c3)n([C@@H]3CCCN(S(=O)(=O)C4CC4)C3)c(=O)n5C)cn2)cn1` [Example 53, (R)-1-(1-(cyclopropylsulfonyl)piperidin-3-yl)-3-methyl-8-(6-(1-methyl-1H-pyrazol-4-yl)pyridin-3-yl)-1H-imidazo[4,5-c]quinolin-2(3H)-one]: the pEC50 was > 7.70 with PC-3 and 7.00 in the assay with SK-BR3/BT474. In the assay on SK-BR3/BT474, `Cn1cc(-c2ccc(-c3ccc4ncc5c(c4c3)n([C@@H]3CCCN(S(N)(=O)=O)C3)c(=O)n5C)cn2)cn1` [Example 54, (R)-3-(3-methyl-8-(6-(1-methyl-1H-pyrazol-4-yl)pyridin-3-yl)-2-oxo-2,3-dihydro-1H-imidazo[4,5-c]quinolin-1-yl)piperidine-1-sulfamide] gave a pEC50 of 7.15.

`Cn1cc(-c2ccc(-c3ccc4ncc5c(c4c3)n([C@@H]3CCCN(S(C)(=O)=O)C3)c(=O)n5C)cn2)nn1` [Example 58, (R)-3-methyl-8-(6-(1-methyl-1H-1,2,3-triazol-4-yl)pyridin-3-yl)-1-(1-(methanesulfonyl)piperidin-3-yl)-1H-imidazo[4,5-c]quinolin-2(3H)-one] gave a pEC50 with MV-4-11 of 7.22. For `Cn1cc(-c2ccc(-c3ccc4ncc5c(c4c3)n(CCNS(C)(=O)=O)c(=O)n5C)cn2)cn1` [Example 63, N-(2-(3-methyl-8-(6-(1-methyl-1H-pyrazol-4-yl)pyridin-3-yl)-2-oxo-2,3-dihydro-1H-imidazo[4,5-c]quinolin-1-yl)ethyl)methanesulfonamide], the pEC50 with SK-BR3/BT474 is 6.52. Still for that read-out and setting: with `Cn1cc(-c2ccc(-c3ccc4ncc5c(c4c3)n(C3CN(S(C)(=O)=O)C3)c(=O)n5C)cn2)cn1` [Example 64, 3-methyl-8-(6-(1-methyl-1H-pyrazol-4-yl)pyridin-3-yl)-1-(1-(methanesulfonyl)azetidin-3-yl)-1H-imidazo[4,5-c]quinolin-2(3H)-one] the figure was 6.70.
